Experimental data as given in patent US9255073B2, “1-benzyl-3-hydroxymethylindazole derivatives and use thereof in the treatment of diseases based on the expression of MCP-1, CX3CR1 and p40” (AZIENDE CHIM. RIUN. ANG. FRANC. A.C.R.A.F. S.p.A., priority 2008, dated 2016).
Counter-ions that a name gives are not always drawn. One block for each compound: values may come before it.

Assays:
p40 = test: Gene expression of p40 in LPS-stimulated MonoMac6 cells (real-time RT-PCR); format: cell-based, human; conditions: MonoMac6, 1 h preincubation, LPS 100 ng/ml 4 h
Description: (§1) The capacity of the compounds to inhibit the expression of p40 by lipopolysaccharide (LPS)-stimulated MonoMac6 cells was evaluated. The cells were placed in 96-well plates at a concentration of 50 000 cells/well. The compounds were tested at the maximum soluble concentration given in Table 4 (in the range 30-300 μM) and incubated for 1 hour. The cells were then stimulated with LPS (100 ng/ml) for 4 hours.
(§2) The total RNA was extracted from the cell pellet using the RNeasy mini kit (Qiagen), reverse-transcribed with the TaqMan Reverse transcription reagents synthesis kit (Applied Biosystems) and the cDNA obtained was used for the real-time PCR reaction. The amplification was obtained in 96-well plates using the ABI Prism 7000 sequence detection system (Applied Biosystems), by applying the following temperature profile: 50° C. for 2 minutes, 95° C. for 10 minutes and 45 cycles at 95° C. for 15 seconds and 60° C. for 1 minute. For the amplification, a set of primers and probe specific for human p40 was used (Applied Biosystems, RefSeq NM_002187.2). A set of primers and probe for β-actin was used in separate wells as an internal control of the samples for the purposes of normalization. Once the reaction had taken place, the fluorescence data were analysed using the ABI Prism 7000 SDS software, by calculating the threshold cycle (Ct) for each sample and subsequently performing a relative quantification via the ΔΔCt method.

CX3CR1 = test: Gene expression of CX3CR1 in LPS-stimulated MonoMac6 cells (real-time RT-PCR); format: cell-based, human; conditions: MonoMac6, 1 h preincubation, LPS 100 ng/ml 20 h
Description: as §1, with “of CX3CR1” for “of p40”, “Table 3” for “Table 4”, “for 20” for “for 4”
as §2, with “CX3CR1” for “p40”, “NM_001337.3).” for “NM_002187.2).”

MCP-1 [1] = test: Production of MCP-1 protein by LPS-stimulated MonoMac6 cells (ELISA); format: cell-based; conditions: Homo sapiens, MONO-MAC-6, MonoMac6, 1 h preincubation, LPS 100 ng/ml 20 h, ELISA of supernatant; for inhibition at 150 µM: 150 μM (maximum soluble concentration); for inhibition at 75 µM: 75 μM (maximum soluble concentration); for inhibition at 30 µM: 30 μM (maximum soluble concentration)
Description: as §1, with “of the protein MCP-1” for “of p40”, “Table 2” for “Table 4”, “for 20” for “for 4”
The amount of MCP-1 produced was measured in the supernatants, suitably diluted with buffer, by means of an immunoenzymatic test (ELISA) using a commercial kit (ELISA MCP-1/JE, R&D Systems).

MCP-1 [2] = test: Gene expression of MCP-1 in LPS-stimulated MonoMac6 cells (real-time RT-PCR); format: cell-based, human; conditions: MonoMac6, 1 h preincubation, LPS 100 ng/ml 4 h
Description: as §1, with “of MCP-1” for “of p40”, “Table 1” for “Table 4”
as §2, with “MCP-1” for “p40”, “NM_002982.3).” for “NM_002187.2).”

[3] = 150 μM (maximum soluble concentration)
[4] = 30 μM (maximum soluble concentration)
[5] = 300 μM (maximum soluble concentration)

SMILES: OCc1nn(Cc2ccccc2)c2ccccc12 [Compound 1, 1-benzyl-3-hydroxymethyl-indazole]
- % inhibition of p40 expression (mRNA) (p40; [3]): 32%
- % inhibition of CX3CR1 expression (mRNA) (CX3CR1; [3]): 72%
- inhibition at 150 µM (MCP-1 [1]): 54%
- % inhibition of MCP-1 expression (mRNA) (MCP-1 [2]; [3]): 30%

- melting point: 95 to 97 °C
SMILES: COc1ccc(Cn2nc(CO)c3ccccc32)cc1 [Compound 2, [1-(4-methoxybenzyl)-1H-indazol-3-yl]methanol]

SMILES: OCc1nn(Cc2ccc(Cl)cc2)c2ccccc12 [Compound 4, [1-(4-chlorobenzyl)-1H-indazol-3-yl]methanol]
- inhibition at 75 µM (MCP-1 [1]): 85%

SMILES: OCc1nn(Cc2ccc(Cl)cc2Cl)c2ccccc12 [Compound 6, [1-(2,4-dichlorobenzyl)-1H-indazol-3-yl]methanol]
- inhibition at 30 µM (MCP-1 [1]): 54%

SMILES: Cc1cc(Cl)ccc1Cn1nc(CO)c2ccccc21 [Compound 8, [1-(4-chloro-2-methylbenzyl)-1H-indazol-3-yl]methanol]
- inhibition at 30 µM (MCP-1 [1]): 75%

- melting point: 97 to 98 °C
SMILES: COc1ccc2c(c1)c(CO)nn2Cc1ccccc1 [Compound 9, (1-benzyl-5-methoxy-1H-indazol-3-yl)methanol]

- melting point: 72 to 74 °C
SMILES: Cc1cc(Cl)ccc1Cn1nc(C(C)(C)O)c2ccccc21 [Compound 10, 2-[1-(4-chloro-2-methylbenzyl)-1H-indazol-3-yl]propan-2-ol]
- % inhibition of p40 expression (mRNA) (p40; [4]): 65%
- % inhibition of CX3CR1 expression (mRNA) (CX3CR1; [4]): 89%
- inhibition at 30 µM (MCP-1 [1]): 81%
- % inhibition of MCP-1 expression (mRNA) (MCP-1 [2]; [4]): 72%

SMILES: CC(C)(O)c1nn(Cc2ccc(Cl)cc2Cl)c2ccccc12 [Compound 11, 2-[1-(2,4-dichlorobenzyl)-1H-indazol-3-yl]propan-2-ol]
- inhibition at 30 µM (MCP-1 [1]): 88%

SMILES: Cc1cc(Cl)ccc1Cn1nc(C(C)O)c2ccccc21 (centres unmarked) [Compound 12, 1-[1-(4-chloro-2-methylbenzyl)-1H-indazol-3-yl]ethanol]
- inhibition at 30 µM (MCP-1 [1]): 76%

- melting point: 67 to 69 °C
SMILES: OCCOCc1nn(Cc2ccccc2)c2ccccc12 [Compound 13, 2-[(1-benzyl-1H-indazol-3-yl)methoxy]ethanol]
- % inhibition of CX3CR1 expression (mRNA) (CX3CR1; [5]): 90%
- inhibition at 300 µM (MCP-1 [1]; [5]): 78%
- % inhibition of MCP-1 expression (mRNA) (MCP-1 [2]; [5]): 55%

SMILES: CN(C)CCOCc1nn(Cc2ccccc2)c2ccccc12.Cl [Compound 14, 2-[(1-benzyl-1H-indazol-3-yl)methoxy]-N,N-dimethylethanamine hydrochloride]
- % inhibition of CX3CR1 expression (mRNA) (CX3CR1; [3]): 96%
- inhibition at 150 µM (MCP-1 [1]): 64%
- % inhibition of MCP-1 expression (mRNA) (MCP-1 [2]; [3]): 52%

SMILES: CN(C)CCCOCc1nn(Cc2ccccc2)c2ccccc12 [Compound 15, 3-[(1-benzyl-1H-indazol-3-yl)methoxy]-N,N-dimethylpropan-1-amine hydrochloride]
- inhibition at 75 µM (MCP-1 [1]): 44%

- melting point: 52 to 53 °C
SMILES: CC(C)(CO)OCc1nn(Cc2ccccc2)c2ccccc12 [Compound 17, 2-[(1-benzyl-1H-indazol-3-yl)methoxy]-2-methylpropan-1-ol]
- % inhibition of p40 expression (mRNA) (p40; [3]): 37%
- % inhibition of CX3CR1 expression (mRNA) (CX3CR1; [3]): 88%
- inhibition at 150 µM (MCP-1 [1]): 82%
- % inhibition of MCP-1 expression (mRNA) (MCP-1 [2]; [3]): 53%

- melting point: 87 to 88 °C
SMILES: CC(C)(CN1CCOCC1)OCc1nn(Cc2ccccc2)c2ccccc12.O=C(O)/C=C\C(=O)O [Compound 18, 1-benzyl-3-[(1,1-dimethyl-2-morpholin-4-ylethoxy)methyl]-1H-indazole maleate]
- % inhibition of p40 expression (mRNA) (p40; 75 μM (maximum soluble concentration)): 39%
- inhibition at 75 µM (MCP-1 [1]): 85%
